# What was measured:
# [1] = target: T1, IL-17A : IL-17RA binding (Homo sapiens, UniProt Q16552, K93Q); test: IL-17A(FLAG-tagged):IL-17RA(His-tagged) binding disruption Eu-HTRF assay, Protocol 1; details: FLAG-IL-17A 2.5 nM at 2x final concentration; average if tested more than once
# T1 construct: Name: IL-17A-Flag
# Text: An antibody directed against the FLAG tag of IL-17A (SEQ ID NO: 1) is labeled with the HTRF donor chromophore (Europium-cryptate). IL-17A is present as a dimer that is “locked into” this quaternary structure due to the formation of loop-spanning […] disulfide bridges. The construct of IL-17RA used in the assay excludes the […] portion of the receptor and is fused to a C-terminal 10×His tag (SEQ ID NO:2). An antibody directed against the His tag of the IL-17RA chimera is labeled with the HTRF acceptor chromophore (“D2”). The fluorescence-resonance energy transfer (FRET) depends on the vicinity of the donor chromophore to the acceptor, and interruption of the binding between the IL-17A and IL-17RA causes the reduction/loss of FRET. Therefore, this assay allows to evaluate the compound effect on the binding IL-17A and IL-17RA by monitoring the fluorescence intensity of donor vs acceptor. The assay was run using either Protocol 1 or Protocol 2 as described below.
# Protocol 1. 40 nl of 2-fold serial diluted compound solution for total 22 dilution points is added into each well of a 1536-well, white, low-volume, non-binding plate (Greiner #782904), then 2 μl of FLAG tagged IL-17A at 2× final concentration (2.5 nM) in solution of PBS+0.01% Triton-X100 is added to each well. The assay plate is briefly centrifuged then incubated for 1 h at rt. A mixed solution is prepared containing 2×5 nM 10HIS×IL-17RA, 2×2.5 nM Eu-anti-FLAG (CISBIO), 2×5 nM D2-anti-HIS (CISBIO) in PBS+0.01% Triton-X100+200 mM Potassium Fluoride (Sigma 60238) and 2 μl of mix is added to each well of the assay plate. The plate is briefly centrifuged then incubated for 2 h at rt. The HTRF intensities at the wavelength of donor (620 nm) and acceptor (665 nm) are measured using BMG Pherastar. The ratio between intensities at two wavelengths is calculated and plotted against the compound concentration and the data is fitted to a one-site competition model to yield IC50 of the compound.
# [2] = tested on: IL-17A-induced G-CSF production in human normal keratinocyte (NHK); test: NHK assay: IL-17A-induced G-CSF production in normal human keratinocytes; type: cell-based; details: Homo sapiens, Keratinocyte, 24 h, IL-17A 5 ng/mL, average if tested more than once
# Experimental: IL-17A acts directly on keratinocytes through binding to dimeric receptor IL-17RA/RC and drives the production of a number of inflammatory mediators known to be elevated in psoriasis lesional tissue. IL-17A small molecule inhibitors that block the IL-17A to interact with IL-17R would inhibit the IL-17A signaling in its targeted cells such as keratinocytes. The compound functional activity is evaluated for its impact on IL-17A-induced G-CSF production in human normal keratinocyte (NHK).
# Adult normal human keratinocytes are cultured in keratinocyte growth medium (Lonza) in a flask till reaching ˜90% confluence, then cells are transferred to a 384-well plate at density of 3000-4000 cell/well. Recombinant human IL-17A (Gibco PHC9174) is pre-incubated with titrated compound or DMSO for 1 h at rt then added to the cell culture plate. The final concentration of IL-17A is 5 ng/mL and DMSO is 0.2%, in the culture containing 5% FBS. Cells are cultured/treated for 24 h at 37° C. Supernatants are collected and G-CSF production is measured through HTRF technology using Human G-CSF Kit (CisBio). G-CSF concentration was extrapolated from the standard curve and IC50 is determined using GraphPad Prism. Cell viability is also evaluated using CellTiter-Glo kit (Promega) and effect of compound on cell viability is compared to DMSO control.
# T1 sequence (Q16552 with tags, fused parts or gaps K93Q): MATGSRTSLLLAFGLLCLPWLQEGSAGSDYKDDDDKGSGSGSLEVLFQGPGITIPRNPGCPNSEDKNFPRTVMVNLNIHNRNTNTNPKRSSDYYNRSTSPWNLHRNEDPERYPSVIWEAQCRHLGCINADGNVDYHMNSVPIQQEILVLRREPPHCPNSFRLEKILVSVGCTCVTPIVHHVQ
SMILES,IC50 [1],IC50 [2]
"C[C@@H](NC(=O)CCC(F)(F)F)c1ccc2[nH]c([C@@H](NC(=O)c3cnn(CCC(F)(F)F)n3)C3CCC(F)(F)CC3)nc2c1 [Example 3, N—[(S)-(4,4-Difluorocyclohexyl)-[6-[(1R)-1-(4,4,4-trifluorobutanoylamino)ethyl]-1H-benzimidazol-2-yl]methyl]-2-(3,3,3-trifluoropropyl)triazole-4-carboxamide]",> 100 nM,> 100 nM
"CC(CC(=O)N[C@H](C)c1ccc2nc([C@@H](NC(=O)c3ccnn3CC(F)(F)F)C3CCC(F)(F)CC3)[nH]c2c1)C(F)(F)F (single isomer, unassigned) [Example 133, N—((S)-(4,4-Difluorocyclohexyl)(6-((R)-1-((R*)-4,4,4-trifluoro-3-methylbutanamido)ethyl)-1H-benzo[d]imidazol-2-yl)methyl)-1-(2,2,2-trifluoroethyl)-1H-pyrazole-5-carboxamide]",> 100 nM,> 100 nM
"CCC(NC(=O)CCC(F)(F)F)c1ccc2[nH]c([C@@H](NC(=O)c3ccnn3C)C3CCC(F)(F)CC3)nc2c1 (single isomer, unassigned) [Example 52, N—((S)-(4,4-Difluorocyclohexyl)(5-((S*)-1-(4,4,4-trifluorobutanamido)propyl)-1H-benzo[d]imidazol-2-yl)methyl)-1-methyl-1H-pyrazole-5-carboxamide]",> 100 nM,> 100 nM
"C[C@@H](NC(=O)CCC(F)(F)F)c1ccc2[nH]c([C@@H](NC(=O)c3cnnn3CC3CC(F)(F)C3(F)F)C3CCC(F)(F)CC3)nc2c1 (stereo partly drawn) [Example 82, N—((S)-(4,4-Difluorocyclohexyl)(5-((R)-1-(4,4,4-trifluorobutanamido)ethyl)-1H-benzo[d]imidazol-2-yl)methyl)-1-((2,2,3,3-tetrafluorocyclobutyl)methyl)-1H-1,2,3-triazole-5-carboxamide]",> 100 nM,> 100 nM
"C[C@@H](NC(=O)CC(C(F)(F)F)C(F)(F)F)c1ccc2[nH]c([C@@H](NC(=O)c3ccnn3C)C3CCC(F)(F)CC3)nc2c1 [Example 116, N—((S)-(4,4-Difluorocyclohexyl)(5-((R)-1-(4,4,4-trifluoro-3-(trifluoromethyl)butanamido)ethyl)-1H-benzo[d]imidazol-2-yl)methyl)-1-methyl-1H-pyrazole-5-carboxamide]",50 to 100 nM,< 50 nM
"CCn1nccc1C(=O)N[C@H](c1nc2cc([C@@H](C)NC(=O)CC(C(F)(F)F)C(F)(F)F)ccc2[nH]1)C1CCC(F)(F)CC1 [Example 127, N—((S)-(4,4-Difluorocyclohexyl)(5-((R)-1-(4,4,4-trifluoro-3-(trifluoromethyl)butanamido)ethyl)-1H-benzo[d]imidazol-2-yl)methyl)-1-ethyl-1H-pyrazole-5-carboxamide]",50 to 100 nM,< 50 nM
"C[C@@H](NC(=O)CC(C(F)(F)F)C(F)(F)F)c1ccc2[nH]c([C@@H](NC(=O)c3ccnn3CCC(F)(F)F)C3CCC(F)(F)CC3)nc2c1 [Example 126, N—((S)-(4,4-Difluorocyclohexyl)(5-((R)-1-(4,4,4-trifluoro-3-(trifluoromethyl)butanamido)ethyl)-1H-benzo[d]imidazol-2-yl)methyl)-1-(3,3,3-trifluoropropyl)-1H-pyrazole-5-carboxamide]",> 100 nM,50 to 100 nM

# Further lines, with some results ahead:
IC50 [1],SMILES,IC50 [2]
> 100 nM,C[C@@H](NC(=O)CCC(F)(F)F)c1ccc2[nH]c([C@@H](NC(=O)c3cnn(CCC(F)(F)F)n3)[C@@H]3CCCC(F)(F)C3)nc2c1 [Example 265],> 100 nM
> 100 nM,"CC(C)n1nccc1C(=O)N[C@@H](CC1CC2(C1)CC(F)(F)C2)c1nc2ccc([C@H](NC(=O)CC3CC(F)(F)C3)C3CC3)cc2[nH]1 (stereo partly drawn) [Example 148, N—((S)-1-(6-((R)-Cyclopropyl(2-(3,3-difluorocyclobutyl)acetamido)methyl)-1H-benzo[d]imidazol-2-yl)-2-(6,6-difluorospiro[3.3]heptan-2-yl)ethyl)-1-isopropyl-1H-pyrazole-5-carboxamide]",> 100 nM
50 to 100 nM,"O=C(CC1CC(F)(F)C1)N[C@@H](c1ccc2nc([C@@H](NC(=O)c3nonc3C3CC3)[C@@H]3CCCC(F)(F)C3)[nH]c2c1)C1CC1 [Example 171, 4-Cyclopropyl-N—((S)-(6-((R)-cyclopropyl(2-(3,3-difluorocyclobutyl)acetamido)methyl)-1H-benzo[d]imidazol-2-yl)((R)-3,3-difluorocyclohexyl)methyl)-1,2,5-oxadiazole-3-carboxamide]",< 50 nM
> 100 nM,"Cc1nonc1C(=O)N[C@H](c1nc2ccc([C@H](NC(=O)CC3CC(F)(F)C3)C3CC3)cc2[nH]1)[C@H]1C[C@@H](CC(F)(F)F)C1 (single isomer, unassigned) [Example 244]",> 100 nM
> 100 nM,"C[C@@H](NC(=O)CCC(F)(F)F)c1ccc2[nH]c([C@@H](NC(=O)c3nccn3CCC(F)(F)F)C3CCC(F)(F)CC3)nc2c1 [Example 227, N—((S)-(4,4-Difluorocyclohexyl)(5-((R)-1-(4,4,4-trifluorobutanamido)ethyl)-1H-benzo[d]imidazol-2-yl)methyl)-1-(3,3,3-trifluoropropyl)-1H-imidazole-2-carboxamide]",> 100 nM
> 100 nM,"Cc1nonc1C(=O)N[C@@H](CC(C)(C)C(F)(F)F)c1nc2cc([C@@H](NC(=O)CCC(F)(F)F)C3CC3)ccc2[nH]1 (relative stereo) [Example 192, N—((S*)-1-(5-((S*)-Cyclopropyl(4,4,4-trifluorobutanamido)methyl)-1H-benzo[d]imidazol-2-yl)-4,4,4-trifluoro-3,3-dimethylbutyl)-4-methyl-1,2,5-oxadiazole-3-carboxamide]",> 100 nM
> 100 nM,"CC(C)n1ncnc1C(=O)N[C@H](c1nc2cc([C@@H](C)NC(=O)CCC(F)(F)F)ccc2[nH]1)C1CCC(F)(F)CC1 [Example 199, N—((S)-(4,4-Difluorocyclohexyl)(5-((R)-1-(4,4,4-trifluorobutanamido)ethyl)-1H-benzo[d]imidazol-2-yl)methyl)-1-isopropyl-1H-1,2,4-triazole-5-carboxamide]",> 100 nM
< 50 nM,"O=C(CC1CC(F)(F)C1)N[C@@H](c1ccc2[nH]c([C@@H](NC(=O)c3nonc3C3CC3)[C@H]3[C@@H]4CC(F)(F)C[C@@H]43)nc2c1)C1CC1 [Example 266, 4-Cyclopropyl-N—((S)-(5-((R)-cyclopropyl(2-(3,3-difluorocyclobutyl)acetamido)methyl)-1H-benzo[d]imidazol-2-yl)((1R,5S,6r)-3,3-difluorobicyclo[3.1.0]hexan-6-yl)methyl)-1,2,5-oxadiazole-3-carboxamide]",< 50 nM
< 50 nM,"Cc1nonc1C(=O)N[C@@H](CC(C)(C)C(F)(F)F)c1nc2ccc([C@H](NC(=O)CC(C)C(F)(F)F)C3CC3)cc2[nH]1 (single isomer, unassigned) [Example 179, N—((S)-1-(6-((R)-Cyclopropyl((R*)-4,4,4-trifluoro-3-methylbutanamido)methyl)-1H-benzo[d]imidazol-2-yl)-4,4,4-trifluoro-3,3-dimethylbutyl)-4-methyl-1,2,5-oxadiazole-3-carboxamide]",> 100 nM

# Reference: patent US20240376085A1 (Janssen Pharmaceutica NV, priority 2021, published 2024)
